Patent publication US7951815B2, “Substituted 1,4,8-triazaspiro [4,5]decan-2-one compounds” (Gruenenthal GmbH, priority 2004, dated 2011)

What follows are compounds tested on batrachotoxin (BTX) binding site of the sodium channel (assay: Affinity to the batrachotoxin (BTX) binding site of the sodium channel). Conditions: Table III; rat cerebrocortex synaptosomes; test concentration not given.

**Q.** Which BTX inhibition does the source give for `COc1ccc(CC(=O)N2CCC3(CC2)NC(CCSC)C(=O)N3Cc2ccc(F)cc2)cc1` (centres unmarked) [Example 215, 1-(4-Fluorobenzyl)-8-[2-(4-methoxyphenyl)acetyl]-3-(2-methylsulfanylethyl)-1,4,8-triazaspiro[4,5]decan-2-one] here?
**A.** Its BTX inhibition is 32.

**Q.** With `CC(C)CC1NC2(CCN(C(=O)CCC3CCCC3)CC2)N(Cc2ccccc2F)C1=O` (centres unmarked) [Example 220, 8-(3-Cyclopentylpropionyl)-1-(2-fluorobenzyl)-3-isobutyl-1,4,8-triazaspiro[4,5]decan-2-one] as the compound, how does the BTX inhibition read?
**A.** Its BTX inhibition is 62.

**Q.** For `CC(C)CC1NC2(CCN(C(=O)c3ccc(C(F)(F)F)c(F)c3)CC2)N(Cc2ccccc2)C1=O` (centres unmarked) [Example 241, 1-Benzyl-8-(3-fluoro-4-trifluoromethylbenzoyl)-3-isobutyl-1,4,8-triazaspiro[4,5]decan-2-one], which BTX inhibition is on record?
**A.** The BTX inhibition was 58.

**Q.** How did the BTX inhibition turn out when `CN1C(=O)C(Cc2ccccc2)NC12CCN(C(=O)C1COc3ccc(Cl)cc3C1)CC2` (centres unmarked) [Example 242, 3-Benzyl-8-(6-chloro-2H-chroman-3-carbonyl)-1-methyl-1,4,8-triazaspiro[4,5]decan-2-one] was run?
**A.** The BTX inhibition was 42.

**Q.** `CC(C)C1NC2(CCN(C(=O)C3COc4ccc(Cl)cc4C3)CC2)N(Cc2ccccc2C#N)C1=O` (centres unmarked) [Example 245, 2-[8-(6-Chloro-2H-chroman-3-carbonyl)-3-isopropyl-2-oxo-1,4,8-triazaspiro[4,5]dec-1-ylmethyl]benzonitrile] was tested. Which BTX inhibition did it give?
**A.** The BTX inhibition was 60.

**Q.** For `CC(C)C1NC2(CCN(C(=O)c3cccc(Cl)c3F)CC2)N(Cc2ccccc2C#N)C1=O` (centres unmarked) [Example 247, 2-[8-(3-Chloro-2-fluorobenzoyl)-3-isopropyl-2-oxo-1,4,8-triazaspiro[4,5]dec-1-ylmethyl]benzonitrile], which BTX inhibition is on record?
**A.** The BTX inhibition was 32.

**Q.** `COC(=O)c1ccc(CN2C(=O)CNC23CCN(C(=O)c2snnc2C)CC3)cc1` [Example 258, Methyl 4-[8-(4-methyl[1,2,3]thiadiazole-5-carbonyl)-2-oxo-1,4,8-triazaspiro[4,5]dec-1-ylmethyl]benzoate] was tested. Which BTX inhibition did it give?
**A.** The BTX inhibition was 32.

**Q.** For `CCCCC(=O)N1CCC2(CC1)NCC(=O)N2Cc1cccc(C#N)c1` [Example 268, 3-(2-Oxo-8-pentanoyl-1,4,8-triazaspiro[4,5]dec-1-ylmethyl)benzonitrile], which BTX inhibition is on record?
**A.** The BTX inhibition was 31.

**Q.** How did the BTX inhibition turn out when `O=C(c1ccnc(Cl)c1)N1CCC2(CC1)NCC(=O)N2Cc1ccccc1F` [Example 300, 8-(2-Chloropyridin-4-carbonyl)-1-(2-fluorobenzyl)-1,4,8-triazaspiro[4,5]decan-2-one] was run?
**A.** The BTX inhibition was 33.

**Q.** With `C=CCN1C(=O)C(CCSC)NC12CCN(C(=O)c1c(F)c(F)c(F)c(F)c1F)CC2` (centres unmarked) [Example 302, 1-Allyl-3-(2-methylsulfanylethyl)-8-pentafluorobenzoyl-1,4,8-triazaspiro[4,5]decan-2-one] as the compound, how does the BTX inhibition read?
**A.** The BTX inhibition was 39.

**Q.** For `O=C(c1ccccc1C(F)(F)F)N1CCC2(CC1)NCC(=O)N2Cc1ccccc1F` [Example 303, 1-(2-Fluorobenzyl)-8-(2-trifluoromethylbenzoyl)-1,4,8-triazaspiro[4,5]decan-2-one], which BTX inhibition is on record?
**A.** The BTX inhibition was 30.

**Q.** `C=CCCC(=O)N1CCC2(CC1)NC(C(C)C)C(=O)N2CC=C` (centres unmarked) [Example 307, 1-Allyl-3-isopropyl-8-pent-4-enoyl-1,4,8-triazaspiro[4,5]decan-2-one] was tested. Which BTX inhibition did it give?
**A.** The BTX inhibition was 31.

**Q.** For `CCOC(=O)CN1C(=O)C(CCSC)NC12CCN(C(=O)c1ccc(C(F)(F)F)cc1)CC2` (centres unmarked) [Example 322, Ethyl [3-(2-methylsulfanylethyl)-2-oxo-8-(4-trifluoromethylbenzoyl)-1,4,8-triazaspiro[4,5]dec-1-yl]acetate], which BTX inhibition is on record?
**A.** Its BTX inhibition is 36.

**Q.** With `CC(C)CC1NC2(CCN(C(=O)c3cc(C(F)(F)F)ccc3Cl)CC2)N(Cc2c(Cl)cccc2Cl)C1=O` (centres unmarked) [Example 326, 8-(2-Chloro-5-trifluoromethylbenzoyl)-1-(2,6-dichlorobenzyl)-3-isobutyl-1,4,8-triazaspiro[4,5]decan-2-one] as the compound, how does the BTX inhibition read?
**A.** Its BTX inhibition is 68.
